The values that follow are results of earlier work, collected in patent publication US8648060B2, “Use of 3-alpha-androstanediol in combination with a 5-HT1a agonist, in the treatment of sexual dysfunction” (Emotional Brain B.V., priority 2006, dated 2014).

The conditions of the data set: serum concentration; capsule.

Take `CCCc1nn(C)c2c(=O)[nH]c(-c3cc(S(=O)(=O)N4CCN(C)CC4)ccc3OCC)nc12.O=C(O)CC(O)(CC(=O)O)C(=O)O` [sildenafil, 1-[[3-(6,7-dihydro-1-methyl-7-oxo-3-propyl-1Hpyrazolo[4,3-d]pyrimidin-5-yl)-4-ethoxyphenyl]sulfonyl]-4-methylpiperazine citrate]: the Tmax of sildenafil was 0.5 to 2 h and the T½ was 3.5 h.
